Laboratory results published in patent publication US20070249637A1, “Inhibitors Of Hepatitis C Virus Protease, And Compositions And Treatments Using The Same” (priority 2004, published 2007).

Experiments:
[1] = tested on: HCV dual reporter subgenomic replicon (B6b cell line); experiment: HCV dual reporter subgenomic replicon assay, Renilla luciferase (antiviral activity); assay type: cell-based; settings: Hepatitis C virus, 72 h; 50% reduction of Renilla luciferase expression, 3 days incubation
Experimental: The compounds described herein were tested for antiviral activity utilizing a dual-reporter replicon assay as described in U.S. patent application Ser. No. 10/818,075 (the '075 application), filed Apr. 5, 2004. The disclosure of the '075 application is incorporated herein.
(§1) Cell-based antiviral activity was evaluated in the previously described HCV dual reporter subgenomic replicon system (the '075 application). With this system, the effects of a compound on both HCV replication and cell viability can be simultaneously determined by measuring the intracellular levels of two separate reporter proteins. The dicistronic selectable replicon contains the Renilla luciferase gene such that Renilla luciferase activity within stably-transfected cells serves as a marker of HCV replication. The firefly luciferase gene is stably integrated into and expressed by the Huh-7 host cells. Since firefly luciferase activity is dependent upon cellular transcription and translation, firefly luciferase activity serves as an indicator of cell viability.
(§2) The dual reporter selectable replicon cell line (B6b) was maintained in DMEM supplemented with 10% FBS, L-glutamine, non-essential amino acids, penicillin, streptomycin, and selection agents (200 ug/ml G418 and 6 ug/ml blastocidin). On the first day of the experiment, cells were trypsinized, washed, and diluted in medium lacking the selection agents. Cells were transferred to 96-well, black-walled, clear bottom plates at a density of 2×10^4 cells in 150 ul of medium per well. Cells were allowed to settle for 60 to 90 minutes while compounds were being prepared. Each compound was initially diluted to a 4× working stock (2.56% DMSO in tissue culture medium) that was then serially diluted nine times in half log increments in medium with 2.56% DMSO. Fifty microliters of each dilution were then added in triplicate to the plated cells in order to obtain final IX compound concentrations with 0.64% DMSO. Typical testing concentrations ranged from 320 uM to 10 nM. Control wells containing 0.64% DMSO without compound were also included on each plate.
(§3) After 3 days of incubation under humidity at 37° C. with 5% CO2, plates were microscopically examined for compound precipitation and cell death. Tissue culture medium was then aspirated and cells were lysed with 20 ul of 1× Passive Lysis Buffer (Promega, Madison, Wis.). Reporter activity was measured using a MicroBeta Jet 1450 (Perkin Elmer, Boston, Mass.) following sequential 50 ul additions of firefly and Renilla luciferase substrates as described in the manufacturers protocol (Promega). Luciferase activities were expressed as a percentage of the signals observed in the compound-free control wells. The amount of compound required to reduce Renilla luciferase expression by 50% is defined as the 50% effective concentration, or EC50. The amount of compound that reduces firefly luciferase expression by 50% is defined as the 50% cytotoxic concentration, or CC50. A therapeutic index (TI) is calculated by dividing the CC50 by the EC50.

in vitro = assay type: cell-based; settings: human; 50% reduction of firefly luciferase expression, 3 days incubation; read-out: Replicon CC50
Experimental: as §1, §2, §3

[2] = molecular target: T1, full-length NS3-NS4A enzyme (Hepatitis C virus genotype 1a, UniProt P27958); experiment: HCV protease assay (continuous FRET, full-length enzyme); assay type: biochemical; settings: 3 nM full-length NS3-NS4A, 3 uM depsipeptide FRET substrate S1; competitive inhibition fit
T1 construct: 3 nM full-length NS3-NS4A enzyme
T1 sequence (P27958 1027-1657): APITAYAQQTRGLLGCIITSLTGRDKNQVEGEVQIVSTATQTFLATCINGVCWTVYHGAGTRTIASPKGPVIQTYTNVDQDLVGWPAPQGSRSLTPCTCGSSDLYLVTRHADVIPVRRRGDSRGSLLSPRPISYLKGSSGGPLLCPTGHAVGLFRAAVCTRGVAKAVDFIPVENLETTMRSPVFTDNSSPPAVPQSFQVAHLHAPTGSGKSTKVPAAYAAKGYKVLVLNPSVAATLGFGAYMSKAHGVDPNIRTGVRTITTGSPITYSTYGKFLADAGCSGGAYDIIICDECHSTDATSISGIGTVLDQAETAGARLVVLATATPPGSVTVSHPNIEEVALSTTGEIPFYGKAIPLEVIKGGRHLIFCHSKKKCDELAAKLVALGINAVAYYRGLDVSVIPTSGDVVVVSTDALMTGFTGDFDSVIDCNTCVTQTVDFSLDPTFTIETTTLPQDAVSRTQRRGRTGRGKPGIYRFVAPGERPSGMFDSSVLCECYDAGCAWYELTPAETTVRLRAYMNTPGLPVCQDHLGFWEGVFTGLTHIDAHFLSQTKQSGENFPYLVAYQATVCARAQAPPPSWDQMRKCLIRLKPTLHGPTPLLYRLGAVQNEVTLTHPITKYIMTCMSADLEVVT
T1 sequence (P27958 1658-1711): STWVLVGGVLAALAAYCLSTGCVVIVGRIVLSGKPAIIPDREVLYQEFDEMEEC
Experimental: HCV protease activity and compound inhibition was monitored using a continuous, fluorescence resonance energy transfer (FRET) assay. Test compounds at various concentrations were added to assay buffer (50 mM MOPS pH 7.5, 50 mM NaCl, 20% glycerol, 0.025% Triton-X 100, 1 mM tris(2-carboxyethyl)phosphine) containing 3 uM depsipeptide FRET substrate S1 (Anaspec) (see Taliani et al. Analytical Biochemistry, 240, 60-67 (1996)) in a white, non-binding 96-well plate (Corning). The reaction was started by the addition of 3 nM full-length NS3-NS4A enzyme. The increase in fluorescence intensity following peptide cleavage was monitored using a Safire fluorescence plate reader (Tecan). The excitation and emission wavelengths were 340 nm and 500 nm, respectively. Inhibition constants (KI) were calculated by non-linear regression analysis using an equation derived for competitive inhibition.

O=C(N[C@H]1CCCCC/C=C\[C@@H]2C[C@@]2(C(=O)O)NC(=O)[C@@H]2C[C@@H](Oc3cc(-c4ccccn4)nc4ccsc34)CN2C1=O)OC1CCCC1 [Example 11, (2R,12Z,13aS,14aR,16aS)-6-{[(cyclopentyloxy)carbonyl]amino}-5,16-dioxo-2-[(5-pyridin-2-ylthieno[3,2-b]pyridin-7-yl)oxy]-1,2,3,6,7,8,9,10,11,13a,14,15,16,16a-tetradecahydrocyclopropa[e]pyrrolo[1,2-a][1,4]diazacyclopentadecine-14a(5H)-carboxylic acid]
EC50 [1]: 110 nM
CC50 at 3 days (in vitro): 86000 nM
Ki [2]: 6.6 nM

O=C(N[C@H]1CCCCC/C=C\[C@@H]2C[C@@]2(C(=O)O)NC(=O)[C@@H]2C[C@@H](Oc3cc(-c4ccccn4)nc4ccsc34)CN2C1=O)OC1CCC1 [Example 13, (2R,6S,12Z,13aS,14aR,16aS)-6-{[(Cyclobutyloxy)carbonyl]amino}-5,16-dioxo-2-[(5-pyridin-2-ylthieno[3,2-b]pyridin-7-yl)oxy]-1,2,3,6,7,8,9,10,11,13a,14,15,16,16a-tetradecahydrocyclopropa[e]pyrrolo[1,2-a][1,4]diazacyclopentadecine-14a(5H)-carboxylic acid]
EC50 [1]: 310 nM
CC50 at 3 days (in vitro): 161000 nM
Ki [2]: 9 nM

CC(C)(C)OC(=O)N[C@H]1CCCCC/C=C\[C@@H]2C[C@@]2(C(=O)O)NC(=O)[C@@H]2C[C@@H](Oc3cc(-c4ccccn4)nc4ccsc34)CN2C1=O [Example 14, (2R,6S,12Z,13aS,14aR,16aS)-6-[(Tert-butoxycarbonyl)amino]-5,16-dioxo-2-[(5-pyridin-2-ylthieno[3,2-b]pyridin-7-yl)oxy]-1,2,3,6,7,8,9,10,11,13a,14,15,16,16a-tetradecahydrocyclopropa[e]pyrrolo[1,2-a][1,4]diazacyclopentadecine-14a(5H)-carboxylic acid]
EC50 [1]: 610 nM
CC50 at 3 days (in vitro): 92000 nM
Ki [2]: 8.9 nM

O=C(CC1CC1)N[C@H]1CCCCC/C=C\[C@@H]2C[C@@]2(C(=O)O)NC(=O)[C@@H]2C[C@@H](Oc3cc(-c4ccccn4)nc4ccsc34)CN2C1=O [Example 16, (2R,6S,12Z,13aS,14aR,16aS)-6-[(Cyclopropylacetyl)amino]-5,16-dioxo-2-[(5-pyridin-2-ylthieno[3,2-b]pyridin-7-yl)oxy]-1,2,3,6,7,8,9,10,11,13a,14,15,16,16a-tetradecahydrocyclopropa[e]pyrrolo[1,2-a][1,4]diazacyclopentadecine-14a(5H)-carboxylic acid]
EC50 [1]: 140 nM
CC50 at 3 days (in vitro): 251000 nM
Ki [2]: 11 nM

O=C(N[C@H]1CCCCC/C=C\[C@@H]2C[C@@]2(C(=O)O)NC(=O)[C@@H]2C[C@@H](Oc3nc(-c4ccccn4)nc4sccc34)CN2C1=O)OC1CCCC1 [Example 26, (2R,6S,12Z,13aS,14aR,16aS)-6-{[(Cyclopentyloxy)carbonyl]amino}-5,16-dioxo-2-[(2-pyridin-2-ylthieno[2,3-d]pyrimidin-4-yl)oxy]-1,2,3,6,7,8,9,10,11,13a,14,15,16,16a-tetradecahydrocyclopropa[e]pyrrolo[1,2-a][1,4]diazacyclopentadecine-14a(5H)-carboxylic acid]
EC50 [1]: 100 nM
CC50 at 3 days (in vitro): 117000 nM
Ki [2]: 8.5 nM

O=C(N[C@H]1CCCCC/C=C\[C@@H]2C[C@@]2(C(=O)O)NC(=O)[C@@H]2C[C@@H](Oc3nc(-c4ccccn4)nc4sccc34)CN2C1=O)OC1CCC1 [Example 28, (2R,6S,12Z,13aS,14aR,16aS)-6-{[(cyclobutyloxy)carbonyl]amino}-5,16-dioxo-2-[(2-pyridin-2-ylthieno[2,3-d]pyrimidin-4-yl)oxy]-1,2,3,6,7,8,9,10,11,13a,14,15,16,16a-tetradecahydrocyclopropa[e]pyrrolo[1,2-a][1,4]diazacyclopentadecine-14a(5H)-carboxylic acid]
EC50 [1]: 420 nM
CC50 at 3 days (in vitro): 59000 nM
Ki [2]: 21 nM

CC(C)(C)OC(=O)N[C@H]1CCCCC/C=C\[C@@H]2C[C@@]2(C(=O)O)NC(=O)[C@@H]2C[C@@H](Oc3nc(-c4ccccn4)nc4sccc34)CN2C1=O [Example 29, (2R,6S,12Z,13aS,14aR,16aS)-6-[(tert-butoxycarbonyl)amino]-5,16-dioxo-2-[(2-pyridin-2-ylthieno[2,3-d]pyrimidin-4-yl)oxy]-1,2,3,6,7,8,9,10,11,13a,14,15,16,16a-tetradecahydrocyclopropa[e]pyrrolo[1,2-a][1,4]diazacyclopentadecine-14a(5H)-carboxylic acid]
EC50 [1]: 420 nM
CC50 at 3 days (in vitro): 13000 nM
Ki [2]: 42 nM

O=C(CC1CC1)N[C@H]1CCCCC/C=C\[C@@H]2C[C@@]2(C(=O)O)NC(=O)[C@@H]2C[C@@H](Oc3nc(-c4ccccn4)nc4sccc34)CN2C1=O [Example 31, (2R,6S,12Z,13aS,14aR,16aS)-6-[(Cyclopropylacetyl)amino]-5,16-dioxo-2-[(2-pyridin-2-ylthieno[2,3-d]pyrimidin-4-yl)oxy]-1,2,3,6,7,8,9,10,11,13a,14,15,16,16a-tetradecahydrocyclopropa[e]pyrrolo[1,2-a][1,4]diazacyclopentadecine-14a(5H)-carboxylic acid]
EC50 [1]: 250 nM
CC50 at 3 days (in vitro): 168000 nM
Ki [2]: 39 nM

O=C(N[C@H]1CCCCC/C=C\[C@@H]2C[C@@]2(C(=O)O)NC(=O)[C@@H]2C[C@@H](Oc3nc(-c4ccccn4)nc4ccsc34)CN2C1=O)OC1CCCC1 [Example 41, (2R,6S,12Z,13aS,14aR,16aS)-6-{[(cyclopentyloxy)carbonyl]amino}-5,16-dioxo-2-[(2-pyridin-2-ylthieno[3,2-d]pyrimidin-4-yl)oxy]-1,2,3,6,7,8,9,10,11,13a,14,15,16,16a-tetradecahydrocyclopropa[e]pyrrolo[1,2-a][1,4]diazacyclopentadecine-14a(5H)-carboxylic acid]
EC50 [1]: 34 nM
CC50 at 3 days (in vitro): 87000 nM
Ki [2]: 5.2 nM

O=C(N[C@H]1CCCCC/C=C\[C@@H]2C[C@@]2(C(=O)O)NC(=O)[C@@H]2C[C@@H](Oc3nc(-c4ccccn4)nc4ccsc34)CN2C1=O)OC1CCC1 [Example 43, (2R,6S,12Z,13aS,14aR,16aS)-6-{[(cyclobutyloxy)carbonyl]amino}-5,16-dioxo-2-[(2-pyridin-2-ylthieno[3,2-d]pyrimidin-4-yl)oxy]-1,2,3,6,7,8,9,10,11,13a,14,15,16,16a-tetradecahydrocyclopropa[e]pyrrolo[1,2-a][1,4]diazacyclopentadecine-14a(5H)-carboxylic acid]
EC50 [1]: 190 nM
CC50 at 3 days (in vitro): > 320000 nM
Ki [2]: 20 nM

CC(C)(C)OC(=O)N[C@H]1CCCCC/C=C\[C@@H]2C[C@@]2(C(=O)O)NC(=O)[C@@H]2C[C@@H](Oc3nc(-c4ccccn4)nc4ccsc34)CN2C1=O [Example 44, (2R,6S,12Z,13aS,14aR,16aS)-6-[(Tert-butoxycarbonyl)amino]-5,16-dioxo-2-[(2-pyridin-2-ylthieno[3,2-d]pyrimidin-4-yl)oxy]-1,2,3,6,7,8,9,10,11,13a,14,15,16,16a-tetradecahydrocyclopropa[e]pyrrolo[1,2-a][1,4]diazacyclopentadecine-14a(5H)-carboxylic acid]
EC50 [1]: 150 nM
CC50 at 3 days (in vitro): 159000 nM
Ki [2]: 20 nM
